Tests used:
[1] = target: T1, STK1 (STKK1, soluble kinase domain) (Staphylococcus aureus, UniProt A0ABF7PGK0); assay: inhibition of autophosphorylation of purified STKK1 (gamma-32P-ATP); also elution of STK1 from ATP column; type: biochemical
T1 construct: gene SA1063; His-tag-STKK1, kinase domain with part of the adjacent juxta-membrane domain (1-280 aa)

[2] = target: T1, STK1 (STKK1, soluble kinase domain); assay: inhibition of autophosphorylation of purified STKK1 (gamma-32P-ATP); also elution of purified STKK1 from ATP column; type: biochemical
[3] = system: WalR-P (STKK1-phosphorylated WalR) (Staphylococcus aureus (ORF numbering of N315; source strain of the clone not stated)); assay: EMSA; conditions: scale: fold bound/free ratio vs unphosphorylated WalR

T1 sequence (A0ABF7PGK0 entry or part of it): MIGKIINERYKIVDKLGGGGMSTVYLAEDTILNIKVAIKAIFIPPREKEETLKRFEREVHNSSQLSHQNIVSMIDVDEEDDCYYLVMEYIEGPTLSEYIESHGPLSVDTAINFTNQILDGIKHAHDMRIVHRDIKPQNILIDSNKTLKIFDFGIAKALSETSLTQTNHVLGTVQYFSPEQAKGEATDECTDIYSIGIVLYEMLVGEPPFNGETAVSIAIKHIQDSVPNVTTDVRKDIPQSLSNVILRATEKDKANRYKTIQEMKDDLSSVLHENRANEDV

Row | Molecule | binding signal [3] | further results
1 | Cc1ccc(NC(=O)c2sc(=S)n3c2[nH]c(=O)c2ccccc23)c(C)c1 [Inh2, N-(2,4-Dimethylphenyl)-5-oxo-1-thioxo-4,5-dihydro[1,3]thiazolo[3,4-a] quinazoline-3-carboxamide] | – | IC50 [1]: 24.5 µM
2 | COC(=O)c1ccc2c(=O)[nH]c3c(C(=O)Nc4ccccc4)sc(=S)n3c2c1 [Inh2-B1, Methyl 5-oxo-3-(phenylcarbamoyl)-1-thioxo-4,5dihydro[1,3]thiazolo[3,4-a]quinazoline-8-carboxylate] | – | IC50 [2]: 49 µM
3 | PSA0710 promoter probe (lytE) | > 2 | –
4 | PSA2097 promoter probe (ssaA) | > 2 | –

— paper PMC5505960, “A novel STK1-targeted small-molecule as an “antibiotic resistance breaker” against multidrug-resistant Staphylococcus aureus” (Scientific Reports, 2017)
